Counter-ions that a name gives are not always drawn.
Molecular target: T1, Syk catalytic domain (aa 356-635 with a C-terminal His-tag) (Homo sapiens, UniProt P43405)
T1 construct: His-tag (C); made in house
Experiment: In vitro Syk kinase activity measured by trFRET, Syk catalytic domain
Format: biochemical
Details: not given
In short: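 Kinase reaction: 0.14 nM His-tagged catalytic domain, 0.2 μM biotin-TYR1 peptide, 0.001 mM ATP in 50 mM MOPSO pH 6.5 with MgCl2, MnCl2, DTT, BSA, vanadate, ~60 min at rt, then EDTA quench. Phosphoproduct detected by trFRET (Eu anti-pTyr antibody/streptavidin-APC, 665 nm emission); IC50 from signal in linear range.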

Compared with CC(C)(N)c1ccc(-c2nc(C3CCCCC3)n3c2cnc2[nH]ccc23)cc1 [P.3.1.1, 2-(4-(1-Cyclohexyl-6H-imidazo[1,5-a]pyrrolo[2,3-e]pyrazin-3-yl)phenyl)propan-2-amine], CC(C)(O)c1ccc(-c2nc([C@H]3CCC[C@H](N)C3)n3c2cnc2[nH]ccc23)cc1 [P.3.1.9] is lower in IC50: 100 to 1000 nM for the first, under 100 nM for the second. The second is the more potent here.

COc1ccc(-c2nc([C@@H]3CC[C@H](N)C3)n3c2cnc2[nH]ccc23)cc1 [P.3.1.2] and COc1ccc(-c2nc([C@H]3CCC[C@@H](N)C3)n3c2cnc2[nH]ccc23)cc1 [T.3.1.3] fall in the same range of IC50: 100 to 1000 nM for the first, 100 to 1000 nM for the second.

CCc1c(-c2ccc(C(C)(C)N)cc2)[nH]c2ncc3cnn(C)c3c12 [P.3.1.3] and CCc1c(-c2ccc(C(C)(C)O)cc2)[nH]c2nc(C)c3cncn3c12 [S.1.7] fall in the same range of IC50: 100 to 1000 nM for the first, 100 to 1000 nM for the second.

Going from C1=C(c2ncn3c2cnc2[nH]ccc23)CCNC1 [P.3.1.4, 3-(1,2,3,6-Tetrahydropyridin-4-yl)-6H-imidazo[1,5-a]pyrrolo[2,3-e]pyrazine] to OC1(c2ccc(-c3ncn4c3cnc3[nH]ccc34)cc2)CCNCC1 [P.3.1.6], the IC50 falls from over 10000 nM to under 100 nM. The second is the more potent here.

First: Cc1nc(-c2ccc(C3(O)CCNCC3)cc2)c2cnc3[nH]ccc3n12 [P.3.1.5, 4-(4-(1-Methyl-6H-imidazo[1,5-a]pyrrolo[2,3-e]pyrazin-3-yl)phenyl)piperidin-4-ol hydrochloride]
Second: COc1ccc(-c2nc(CN3CCNCC3)n3c2cnc2[nH]ccc23)cc1 [T.3.1.4]
The IC50 of the first is lower: under 100 nM for the first, 100 to 1000 nM for the second.

CC(C)(O)c1ccc(-c2nc(CN3CCNCC3)n3c2cnc2[nH]ccc23)cc1 [P.3.1.7] and CC1CN(Cc2nc(-c3ccc(C(C)(C)O)cc3)c3cnc4[nH]ccc4n23)CCN1 (centres unmarked) [P.3.1.13] fall in the same range of IC50: 100 to 1000 nM for the first, 100 to 1000 nM for the second.

First: CC(C)(O)c1ccc(-c2nc(CN3CCC(N)CC3)n3c2cnc2[nH]ccc23)cc1 [P.3.1.8]
Second: CC(C)(O)c1ccc(-c2nc(CC3CCNCC3)n3c2cnc2[nH]ccc23)cc1 [T.4.1.2]
The IC50 of the first is higher: 100 to 1000 nM for the first, under 100 nM for the second.

CC(C)(O)c1ccc(-c2nc([C@@H]3CCNC3)n3c2cnc2[nH]ccc23)cc1 [P.3.1.10] and CC(C)(N)CCc1nc(-c2ccc(C(C)(C)O)cc2)c2cnc3[nH]ccc3n12 [T.4.1.3] fall in the same range of IC50: 100 to 1000 nM for the first, 100 to 1000 nM for the second.

CS(=O)(=O)c1ccc(-c2nc([C@H]3CC[C@H](N)CC3)n3c2cnc2[nH]ccc23)cc1 [P.3.1.11] and CS(=O)(=O)c1ccc(-c2nc(COCCN)n3c2cnc2[nH]ccc23)cc1 [T.4.1.1] fall in the same range of IC50: 100 to 1000 nM for the first, 100 to 1000 nM for the second.

First: COc1ccc(-c2ncn3c2cnc2[nH]cc(C4=CCNCC4)c23)cc1 [P.3.1.12]
Second: c1cc2c(ncc3c(-c4ccc(OC5CCNC5)cc4)ncn32)[nH]1 (centres unmarked) [T.3.1.5]
The IC50 of the first is higher: 1000 to 10000 nM for the first, 100 to 1000 nM for the second.

CCc1c(-c2ccc(C(C)(C)O)cc2)[nH]c2ncc3cncn3c12 [S.1.1] and CCc1c(-c2ccc(C(C)(C)O)cc2)[nH]c2ncc3cccn3c12 [S.1.6] cannot be ordered by IC50: under 100 nM for the first, under 100 nM for the second.

First: CCc1c(-c2ccc(C(C)(C)O)cc2)[nH]c2ncc3cnc(N(C)C)n3c12 [S.1.2]
Second: CCc1c(-c2ccc(C(C)(C)O)cc2)[nH]c2ncc3cnnn3c12 [S.1.8]
The IC50 of the first is higher: 100 to 1000 nM for the first, under 100 nM for the second. The second is the more potent here.

First: Cn1nc(-c2ccc(C(C)(C)O)cc2)c2cnc3[nH]ccc3c21 [S.1.3]
Second: CC(=O)c1ccc(-c2nn(C)c3c2cnc2[nH]ccc23)cc1 [W.1.1, 1-(4-(1-Methyl-1,6-dihydropyrazolo[3,4-d]pyrrolo[2,3-b]pyridin-3-yl)phenyl)ethanone]
The IC50 of the first is lower: under 100 nM for the first, 100 to 1000 nM for the second. The first is the more potent here.

Cc1c(-c2ccc(C(C)(C)O)cc2)[nH]c2ncc3nncn3c12 [S.1.4] and CCc1c(-c2ccc(C(C)(C)O)cc2)[nH]c2ncc3nncn3c12 [S.1.9] fall in the same range of IC50: 100 to 1000 nM for the first, 100 to 1000 nM for the second.

First: Cc1c(-c2ccc(C(C)(C)O)cc2)[nH]c2ncc3nnc(C)n3c12 [S.1.5]
Second: Cc1cnc2cnc3[nH]c(-c4ccc(C(C)(C)O)cc4)cc3n12 [S.1.10]
The IC50 of the first is higher: 1000 to 10000 nM for the first, 100 to 1000 nM for the second. The second is the more potent here.

Compared with Cc1nc(-c2ccc(C(C)(C)O)s2)c2cnc3[nH]ccc3n12 [S.1.11], COc1ccc(-c2nc(CN3CCNC(CO)C3)n3c2cnc2[nH]ccc23)cc1 (centres unmarked) [T.3.1.6] is higher in IC50: under 100 nM for the first, 100 to 1000 nM for the second. The first is the more potent here.

Compound Cn1ncc2cnc3[nH]c(-c4ccc[nH]4)cc3c21 [T.3.1.2] has an IC50 of 100 to 1000 nM.

Same assay, conditions: Syk catalytic domain (aa 356-635), trFRET, 0.001 mM ATP

Compared with COc1ccc2c(c1)c(-c1cc3c(ncc4cnn(C)c43)[nH]1)cn2CCN(C)C [N.2.13], COc1ccc2c(c1)c(-c1cc3c(ncc4cnn(C)c43)[nH]1)cn2CC(=O)N1CCN(C)CC1 [N.2.14] is lower in IC50: 100 to 1000 nM for the first, under 100 nM for the second.

First: COc1ccc2c(c1)c(-c1cc3c(ncc4cnc([C@@H]5CCNC5)n43)[nH]1)cn2C [T.1.1.2, (R)-7-(5-Methoxy-1-methyl-1H-indol-3-yl)-1-(pyrrolidin-3-yl)-6H-imidazo[1,5-a]pyrrolo[2,3-e]pyrazine diacetate]
Second: COc1ccc2c(c1)c(-c1cc3c(ncc4cnc(CN)n43)[nH]1)cn2C [T.2.1, (7-(5-Methoxy-1-methyl-1H-indol-3-yl)-6H-imidazo[1,5-a]pyrrolo[2,3-e]pyrazin-1-yl)methanamine]
The IC50 of the first is lower: under 100 nM for the first, 100 to 1000 nM for the second. The first is the more potent here.

COc1ccc2c(c1)c(-c1cc3c(ncc4cnc(CCCN)n43)[nH]1)cn2C [T.1.1.3] and COc1ccc2c(c1)c(-c1cc3c(ncc4cnc(CCN)n43)[nH]1)cn2C [T.1.1.4] cannot be ordered by IC50: under 100 nM for the first, under 100 nM for the second.

First: CS(=O)(=O)c1cccc(-c2cc3c(ncc4cnc(CCCN)n43)[nH]2)c1 [T.1.1.6]
Second: Cn1ncc2cnc3[nH]c(-c4cccc(CN)c4)cc3c21 [T.3.1, (3-(1-Methyl-1,6-dihydropyrazolo[3,4-d]pyrrolo[2,3-b]pyridin-7-yl)phenyl)methanamine]
The IC50 of the first is lower: 100 to 1000 nM for the first, 1000 to 10000 nM for the second.

From US20140349970A1 (ABBVIE INC., priority 2009, published 2014)
